Earlier results, collected in patent US12420242B1 (KING SAUD UNIVERSITY, priority 2025, dated 2025).
In brackets after ≈: the same amount, converted by molar mass. Like-named read-outs stand apart in the source and are kept apart here.

Experiments:
[1] = not given; remark: listed apart in the source

**Q.** Which Density does the source give for `O` [water] here?
**A.** The Density was 1.0 g/mL.

**Q.** What about the Density (Table 1) of the same compound?
**A.** Its Density is 1.00 g · cm^−3.

**Q.** Which Density does the source give for `c1ccsc1` [thiophene] here?
**A.** Its Density is 1.05 g/mL.

**Q.** What about the Density (Table 1) of the same compound?
**A.** Its Density is 1.05 g · cm^−3.

**Q.** With `CCCCCCC` [n-heptane] as the compound, how does the Density (Table 1) read?
**A.** The Density was 0.68 g · cm^−3.

**Q.** And the solubility in water [1]?
**A.** Its solubility in water is 2 µg/mL (≈ 20 µM).

**Q.** And the solubility in water ([1]; Table 1)?
**A.** Its solubility in water is 2 µg/mL (≈ 20 µM).
